Assay results from the supplement of paper PMC10307832.

What was measured:
Test in all cases: relative viability (nuclei count vs DMSO), 5 days (fraction); higher = more cells survive
FG-4592 + Lapatinib = compound: Cc1nc(C(=O)NCC(=O)O)c(O)c2ccc(Oc3ccccc3)cc12 [FG-4592] + CS(=O)(=O)CCNCc1ccc(-c2ccc3ncnc(Nc4ccc(OCc5cccc(F)c5)c(Cl)c4)c3c2)o1 [Lapatinib] (partner 2 µM)
How it was run: (§1)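 Five library-drug doses in √10 steps were combined with a fixed anchor-drug dose, or a single drug was given alone, by pin tool to lung cancer cell lines in 1536-well plates the day after seeding. Nuclei were stained and counted after 5 days. Relative viability is the nuclei count in treated wells over that in vehicle wells, taken as the median of duplicate plates.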

FG-4592 + Alpelisib = compound: Cc1nc(C(=O)NCC(=O)O)c(O)c2ccc(Oc3ccccc3)cc12 [FG-4592] + Cc1nc(NC(=O)N2CCC[C@H]2C(N)=O)sc1-c1ccnc(C(C)(C)C(F)(F)F)c1 [Alpelisib] (partner 2 µM)
How it was run: as §1

IU1-47 + Vorinostat = compound: CC1=CC(=C(N1C2=CC=C(C=C2)Cl)C)C(=O)CN3CCCCC3 [IU1-47] + O=C(CCCCCCC(=O)Nc1ccccc1)NO [Vorinostat] (partner 1 µM)
How it was run: as §1

IU1-47 + Decitabine = compound: CC1=CC(=C(N1C2=CC=C(C=C2)Cl)C)C(=O)CN3CCCCC3 [IU1-47] + Nc1ncn([C@H]2C[C@H](O)[C@@H](CO)O2)c(=O)n1 [Decitabine] (partner 2 µM)
How it was run: as §1

| Cell Line | relative viability (FG-4592 + Lapatinib; first compound 0.08 µM) | relative viability (FG-4592 + Lapatinib; first compound 0.253 µM) | relative viability (FG-4592 + Lapatinib; first compound 0.8 µM) | relative viability (FG-4592 + Lapatinib; first compound 2.53 µM) | relative viability (FG-4592 + Lapatinib; first compound 8 µM) | relative viability (FG-4592 + Alpelisib; first compound 0.08 µM) | relative viability (FG-4592 + Alpelisib; first compound 0.253 µM) | relative viability (FG-4592 + Alpelisib; first compound 0.8 µM) | relative viability (FG-4592 + Alpelisib; first compound 2.53 µM) | relative viability (FG-4592 + Alpelisib; first compound 8 µM) | relative viability (IU1-47 + Vorinostat; first compound 0.08 µM) | relative viability (IU1-47 + Vorinostat; first compound 0.253 µM) | relative viability (IU1-47 + Vorinostat; first compound 0.8 µM) | relative viability (IU1-47 + Vorinostat; first compound 2.53 µM) | relative viability (IU1-47 + Vorinostat; first compound 8 µM) | relative viability (IU1-47 + Decitabine; first compound 0.08 µM) | relative viability (IU1-47 + Decitabine; first compound 0.253 µM) | relative viability (IU1-47 + Decitabine; first compound 0.8 µM) | relative viability (IU1-47 + Decitabine; first compound 2.53 µM) | relative viability (IU1-47 + Decitabine; first compound 8 µM) |
| --- | --- | --- | --- | --- | --- | --- | --- | --- | --- | --- | --- | --- | --- | --- | --- | --- | --- | --- | --- | --- |
| HCC-78 | 0.696 | 0.733 | 0.701 | 0.892 | 0.9 | 0.379 | 0.339 | 0.223 | 0.287 | 0.308 | 0.557 | 0.432 | 0.463 | 0.397 | 0.438 | 0.643 | 0.682 | 0.71 | 0.668 | 0.723 |
| HCC-366 | 0.89 | 0.998 | 1.1 | 1.1 | 1.13 | 0.285 | 0.386 | 0.408 | 0.377 | 0.392 | 0.298 | 0.283 | 0.378 | 0.453 | 0.342 | 0.375 | 0.382 | 0.349 | 0.389 | 0.272 |
| HCC-827 | 0.192 | 0.192 | 0.193 | 0.18 | 0.22 | 0.948 | 0.945 | 0.952 | 0.951 | 0.992 | 0.966 | 1.08 | 1.02 | 0.879 | 0.558 | 0.336 | 0.323 | 0.351 | 0.31 | 0.31 |
| HOP-62 | 0.939 | 1.09 | 1.06 | 0.997 | 1.01 | 0.998 | 0.935 | 0.771 | 1.03 | 0.929 | 0.693 | 0.675 | 0.752 | 0.433 | 0.532 | 0.233 | 0.218 | 0.224 | 0.247 | 0.208 |
| IA-LM | 0.675 | 0.78 | 0.66 | 0.711 | 0.567 | 0.827 | 0.707 | 0.878 | 0.54 | 0.433 | 0.951 | 1.13 | 1.11 | 0.444 | 1.06 | – | – | – | – | – |
| LC-2-ad | 0.913 | 0.915 | 0.94 | 0.904 | 1.05 | 0.799 | 0.842 | 0.865 | 0.943 | 0.926 | 0.736 | 0.736 | 0.71 | – | 0.715 | 0.996 | 0.788 | 0.792 | – | 0.78 |
| LCLC-97TM1 | 1.13 | 1.12 | 0.716 | – | 0.791 | 0.25 | 0.214 | 0.167 | – | 0.29 | 0.919 | 0.869 | 0.82 | – | 0.571 | 0.287 | 0.252 | 0.244 | – | 0.234 |
| LCLC-103H | – | – | – | – | – | 0.887 | 0.875 | 0.749 | 0.966 | 1.06 | 0.748 | 0.819 | 0.82 | 0.561 | 0.704 | 0.793 | 0.731 | 0.724 | 0.725 | 0.751 |
| LK-2 | 0.695 | 0.912 | 0.68 | 0.886 | 0.767 | – | 1.05 | – | 0.929 | 1.03 | 0.21 | 0.195 | 0.175 | 0.331 | 0.274 | 0.354 | 0.35 | 0.34 | 0.372 | 0.179 |
| LOU-NH91 | 0.72 | 0.759 | 0.618 | 0.734 | 0.631 | 0.698 | 0.614 | 0.613 | 0.719 | 0.724 | 1.09 | 1.04 | 0.912 | 1.04 | 0.82 | 0.909 | 0.854 | 0.797 | 0.816 | 0.797 |
| LU99A | 0.964 | 0.93 | 0.801 | 0.96 | 0.83 | 0.497 | 0.492 | 0.402 | 0.579 | 0.532 | 0.557 | 0.513 | 0.5 | 0.579 | 0.426 | 0.968 | 0.824 | 0.852 | 0.883 | 0.768 |
| NCI-H441 | – | – | – | – | – | 0.849 | 0.704 | 0.853 | 0.878 | 0.519 | 0.947 | 0.884 | 0.764 | 0.813 | 0.595 | 0.254 | 0.257 | 0.212 | 0.254 | 0.234 |
| NCI-H522 | – | – | – | – | – | – | – | – | – | – | 0.95 | 0.903 | 0.884 | 0.695 | 0.851 | 0.67 | 0.64 | 0.739 | 0.763 | 0.634 |
| NCI-H1299 | 0.969 | 0.941 | 0.981 | 0.954 | 0.988 | 1.06 | 0.999 | 1.05 | 1.04 | 1.04 | – | – | – | – | – | – | – | – | – | – |
| NCI-H1563 | 0.873 | 0.829 | 0.779 | 1.04 | 0.809 | 1.03 | 0.949 | 0.939 | 0.936 | 0.845 | – | – | – | – | – | – | – | – | – | – |
| NCI-H1648 | – | – | – | – | – | – | – | – | – | – | 0.455 | 0.402 | 0.999 | 0.265 | 0.399 | 0.546 | 0.496 | 0.664 | 0.387 | 0.444 |
| NCI-H1650 | 0.637 | 0.704 | 0.544 | 0.677 | 0.78 | – | – | – | – | – | 0.631 | 0.523 | 0.62 | 0.564 | 0.722 | 0.474 | 0.593 | 0.391 | 0.366 | 0.445 |
| NCI-H1703 | 1.11 | 0.881 | 1.11 | 0.966 | 0.936 | 0.255 | 0.354 | 0.295 | 0.326 | 0.353 | – | – | – | – | – | – | – | – | – | – |
| NCI-H1792 | 0.859 | 0.785 | 0.908 | 0.86 | 0.849 | 0.78 | 0.635 | 0.544 | 0.619 | 0.721 | – | – | – | – | – | 0.625 | 0.639 | 0.611 | 0.497 | 0.371 |
| NCI-H2228 | 1.46 | 0.778 | 0.84 | 0.844 | 0.864 | 0.536 | 0.545 | 0.759 | 0.766 | 0.637 | 0.577 | 0.6 | 0.725 | 0.692 | 0.563 | – | – | – | – | – |
| NCI-H2342 | – | – | – | – | – | – | – | – | – | – | 0.833 | 0.836 | 0.975 | 1.03 | 0.825 | 0.81 | 0.766 | 0.755 | 0.688 | 0.747 |
| SW 900 | – | – | – | – | – | – | – | – | – | – | 0.361 | – | 0.616 | 0.603 | 0.428 | 0.414 | – | 0.447 | 0.452 | 0.353 |
